Laboratory results as given in PMC10444810, “Induction of open-form bile canaliculus formation by hepatocytes for evaluation of biliary drug excretion” (Communications Biology, 2023).
Like-named read-outs stand apart in the source and are kept apart here.

How the values were obtained:
[1] = Reported human in vivo biliary excretion clearance and intrinsic clearance estimated from it (Eq. 4)
P-gp = P-gp (Homo sapiens, UniProt P08183); conditions: two donors (HUM181001B), 1 μCi/ml, 120 min
Description: The cells were incubated in a 37°C water bath, and 200 μl of TB was collected from the lower chamber (bile side) at 30, 60, 90, and 120 min. An equal amount of TB was immediately added after every sampling point. […] The apparent permeability coefficient Papp (cm/s) was estimated using Eq. (2). Here, Q, A, and C0 indicate the recovered amount of the compound on the bile side, the surface area of the insert membrane (0.3 cm^2), and the initial concentration of the substrate, respectively.2 Papp=dQ/dt/(A×C0)

[2] = tested on: sandwich-cultured PXB-cells; conditions: human, 1 μM
CYP1A2 = CYP1A2 (Homo sapiens, UniProt P05177)
Chain of CYP1A2 (P05177 whole entry): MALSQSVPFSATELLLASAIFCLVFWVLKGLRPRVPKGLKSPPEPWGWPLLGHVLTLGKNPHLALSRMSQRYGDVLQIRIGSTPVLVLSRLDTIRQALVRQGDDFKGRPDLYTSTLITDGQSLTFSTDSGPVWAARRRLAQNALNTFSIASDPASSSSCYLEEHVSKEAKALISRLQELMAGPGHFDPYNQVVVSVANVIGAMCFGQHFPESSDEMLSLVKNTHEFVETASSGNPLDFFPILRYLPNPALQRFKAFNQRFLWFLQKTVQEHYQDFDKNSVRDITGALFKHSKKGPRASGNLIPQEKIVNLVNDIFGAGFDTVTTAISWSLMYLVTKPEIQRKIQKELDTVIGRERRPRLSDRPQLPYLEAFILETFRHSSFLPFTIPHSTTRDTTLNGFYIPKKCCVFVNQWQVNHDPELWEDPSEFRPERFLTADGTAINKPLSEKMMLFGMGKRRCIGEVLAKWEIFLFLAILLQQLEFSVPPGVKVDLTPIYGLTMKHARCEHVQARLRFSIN

[3] = cited from earlier work
in vitro = conditions: human, Biliary excretion clearance, observed, CLbile, int
[4] = icHep permeation assay (sinusoidal to bile side) to estimate drug biliary excretion clearance; conditions: human, Biliary excretion clearance, in vitro, observed, CLbile, int, icHep (HUM181001B); CLbile,app of icHep minus control cells
[5] = human, cited from earlier work
[6] = cited from earlier work; for Rb: blood/plasma concentration ratio
[7] = estimated from observed CLbile with fp, Rb, Qh 1400 ml/min
[8] = estimated from observed in vivo CLbile with fp, Rb and Qh 1400 ml/min

Chain of P-gp (P08183 whole entry): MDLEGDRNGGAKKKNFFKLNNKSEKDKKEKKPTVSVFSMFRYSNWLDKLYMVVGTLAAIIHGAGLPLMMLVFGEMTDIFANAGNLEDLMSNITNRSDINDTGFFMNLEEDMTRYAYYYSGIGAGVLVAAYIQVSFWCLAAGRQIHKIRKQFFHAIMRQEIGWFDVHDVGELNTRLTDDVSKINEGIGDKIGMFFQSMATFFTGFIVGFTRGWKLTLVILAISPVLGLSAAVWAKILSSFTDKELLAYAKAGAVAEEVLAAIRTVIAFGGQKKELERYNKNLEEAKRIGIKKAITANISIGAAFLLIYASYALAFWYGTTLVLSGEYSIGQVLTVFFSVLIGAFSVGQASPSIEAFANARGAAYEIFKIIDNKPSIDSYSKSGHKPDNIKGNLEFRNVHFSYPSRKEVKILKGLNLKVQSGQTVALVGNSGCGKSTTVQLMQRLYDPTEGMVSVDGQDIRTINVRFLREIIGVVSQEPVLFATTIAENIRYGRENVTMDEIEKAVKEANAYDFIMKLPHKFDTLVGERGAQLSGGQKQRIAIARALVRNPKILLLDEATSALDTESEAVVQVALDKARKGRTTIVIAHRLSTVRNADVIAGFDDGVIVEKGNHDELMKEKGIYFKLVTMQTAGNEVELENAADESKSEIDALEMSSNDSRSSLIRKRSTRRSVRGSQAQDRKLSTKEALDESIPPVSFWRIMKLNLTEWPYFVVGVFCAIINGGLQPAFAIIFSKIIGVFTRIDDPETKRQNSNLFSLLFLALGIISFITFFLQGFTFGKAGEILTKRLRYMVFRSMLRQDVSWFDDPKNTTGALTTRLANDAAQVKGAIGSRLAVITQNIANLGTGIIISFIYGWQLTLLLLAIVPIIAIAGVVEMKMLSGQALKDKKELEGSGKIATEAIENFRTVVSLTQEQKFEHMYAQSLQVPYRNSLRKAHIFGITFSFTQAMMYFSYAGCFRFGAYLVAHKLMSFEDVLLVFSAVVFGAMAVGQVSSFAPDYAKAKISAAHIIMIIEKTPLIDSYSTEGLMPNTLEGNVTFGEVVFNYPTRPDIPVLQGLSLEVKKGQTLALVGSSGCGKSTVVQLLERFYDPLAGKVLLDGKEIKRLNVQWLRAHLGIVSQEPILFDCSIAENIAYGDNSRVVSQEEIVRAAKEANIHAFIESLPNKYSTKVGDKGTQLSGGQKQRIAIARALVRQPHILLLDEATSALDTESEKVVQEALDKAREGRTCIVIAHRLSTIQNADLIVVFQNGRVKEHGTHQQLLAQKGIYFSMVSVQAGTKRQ

Compound | Observed in vivo CLbile, int [1, 7] [mL/min] | Observed in vivo CLbile, int [1, 8] [mL/min] | BEI (%) Mean ([2]; 2 min) [%] | Predicted in vivo CLbile, int, Mean ([2]; 2 min) [mL/min] | BEI (%) Mean ([2]; 5 min) [%] | Predicted in vivo CLbile, int, Mean ([2]; 5 min) [mL/min] | BEI (%) Mean ([2]; 10 min) [%] | Predicted in vivo CLbile, int, Mean ([2]; 10 min) [mL/min] | BEI (%) Mean ([2]; 20 min) [%] | Predicted in vivo CLbile, int, Mean ([2]; 20 min) [mL/min] | further results
C[C@H]1O[C@@H](O[C@H]2[C@@H](O)C[C@H](O[C@H]3[C@@H](O)C[C@H](O[C@H]4CC[C@@]5(C)[C@H](CC[C@@H]6[C@@H]5C[C@@H](O)[C@]5(C)[C@@H](C7=CC(=O)OC7)CC[C@]65O)C4)O[C@@H]3C)O[C@@H]2C)C[C@H](O)[C@@H]1O [Digoxin, digoxin] | 154 | 154 | 21.9 | 703 | 28.3 | 410 | 44.9 | 439 | 37.1 | 152 | permeability to the bile side in icHep compared to the control (P-gp): significantly increased
CC(=O)Nc1ccc(O)cc1 [Acetaminophen] | – | – | – | – | – | – | – | – | – | – | Enzyme activity, Mean (CYP1A2): 0.950 pmol/min/106 cells
CCOc1ccc2ccccc2c1C(=O)N[C@@H]1C(=O)N2[C@@H]1SC(C)(C)[C@@H]2C(=O)O [Nafcillin, nafcillin] | 1213 | 1213 | 57.4 | 3401 | 42.7 | 1026 | 40.6 | 340 | 70.9 | 608 | fp, unbound fraction of the plasma protein ([3]; reported value): 0.123[43]; fp ([3]; unbound fraction of the plasma protein): 0.123; fp ([3]; unbound fraction, reported value): 0.123; hepatocyte CLint at 1 μM (in vitro): 2.22 ± 1.01 µL/min/1e6 cells; hepatocyte CLint at 1 μM [4]: 1.07 ± 0.14 µL/min/1e6 cells; Observed in vivo CLbile ([5]; reported in vivo biliary excretion clearance): 125 mL/min; Observed in vivo CLbile ([5]; reported value): 125 mL/min; Rb ([6]; reported value): 0.55; Rb [6]: 0.55; Rb, blood/plasma concentration ratio ([6]; reported value): 0.55[43]
